Reference: patent US20260091051A1, “USE OF NMN FOR THE PREVENTION AND/OR TREATMENT OF PAIN, AND CORRESPONDING COMPOSITIONS” (Nuvamid SA, priority 2019, published 2026)
Where two headings read alike, the source gives them in different places.

What was measured:
[1] = test system: acute cystitis induced by cyclophosphamide (CYP) in female Sprague-Dawley rats; settings: for nociceptive scores (CYP-induced visceral pain) / nociceptive threshold (CYP-induced allodynia): 500 mg/kg p.o., 15 min before CYP 150 mg/kg i.p.; for nociceptive scores (CYP-induced visceral pain): vs carrier; for visceral pain induced by the CYP (conclusion): single oral treatment 500 mg/kg
Experimental: Animals: Sprague-Dawley female rats, 7 weeks old as of their birth
Acute Cystitis Induced by CYP: The CYP was injected via intraperitoneal injection at 150 mg/kg in a final volume of 5 ml/kg of saline solution.
The rats were placed in individual Plexiglas boxes with a metal wire mesh floor and allowed to adapt to the chamber for a period of at least 30 minutes prior to the commencement of any testing. Eight von Frey filaments with increasing levels of force viz 1, 2, 4, 6, 8, 10, 15, and 26 g were used. Each calibrated filament was applied 3 times to the lower abdominal area, near the bladder.
• Score 0=no response • Score 1=retraction of the abdomen • Score 2=stamping or changing of position • Score 3=wheezing or squealing, or abdominal curvature, or licking of the site stimulated with von Frey filaments
For each rat, the results were expressed as follows: • Nociceptive threshold: first von Frey force level for which the stimulus is perceived as being painful (the score ≥1 is obtained)=>lowered threshold=allodynia • Nociceptive score: % of the maximum response (total=9 for 3 combined applications) for each filament=>Overall response to pain
Experimental Groups (6 Rats Per Group): • Group 1: Carrier (5 ml/kg)+CYP • Group 2: NMN (500 mg/kg)+CYP • Group 3: Compound A (500 mg/kg)+CYP • Group 4: Compound B (500 mg/kg)+CYP

[2] = test system: cyclophosphamide-induced cystitis (visceral nociceptive pain) in female Sprague-Dawley rats; experiment: Visceral pain model of cyclophosphamide-induced cystitis in rats, von Frey filaments (Example 1); format: in vivo, rat; settings: for nociceptive threshold (threshold of tolerance to pain, allodynia): CYP-treated rats; for nociceptive threshold (threshold of tolerance to pain, allodynia) / nociceptive score: NMN 500 mg/kg or ibuprofen 300 mg/kg oral
Experimental: The effectiveness of the use of NMN according to the invention was evaluated in rats in a model of nociceptive pain. More precisely, the model used is a visceral pain model. The administration of cyclophosphamide (CYP) serves as the means to simulate cystitis in rats.
The positive control is ibuprofen, a non-steroidal anti-inflammatory drug frequently prescribed to relieve nociceptive pain. The negative control is the carrier for NMN and ibuprofen, that is to say, distilled water.
For this study, 7-week-old female Sprague-Dawley rats were divided into three groups, each group comprising of 6 rats: • a control group who received 5 ml of distilled water (carrier); • a group treated with NMN at 500 mg/kg; and • a group treated with ibuprofen at 300 mg/kg.
The NMN is in the form of zwitterion.
After 24 hours of adaptation, a test to measure the threshold of pain tolerance of each animal was carried out with von Frey filaments prior to the start of the study. This measurement prior to any exposure to a painful stimulus makes it possible to obtain the baseline pain tolerance threshold level in the animals and serves as a negative control.
Von Frey filaments are used as a device for measuring the sensitivity of the skin to touch. The use of von Frey filaments makes it possible to test for allodynia and hyperalgesia in rodents. Briefly put, each filament corresponds to a given force. The filaments are applied in ascending order of increasing force to the animal's skin. The rodents in effect have a reflex to withdraw when an unexpected contact occurs. The withdrawal in response to a force exerted on the rodent is indicative of the animal's threshold of tolerance to pain. The use of von Frey filaments is commonly implemented for measurement of pain in rodents (Deuis J R, Dvorakova L S and Vetter I (2017) Methods Used to Evaluate Pain Behaviors in Rodents. Front. Mol. Neurosci. 10:284.).
In the present study, eight filaments in ascending order of increasing force, of 1 g, 2 g, 4 g, 6 g, 8 g, 10 g, 15 g, and 26 g, were used and applied three times each to the animal's abdomen, near the bladder. The animal's response was assessed as follows: • score 0: no response • score 1: retraction of the abdomen • score 2: stamping or changing of position of the animal • score 3: twitching, or curving or rounding of the abdomen, or licking of the area stimulated by the von Frey filament.
For each rat, the results are expressed as follows: • nociceptive threshold: first force level at which a response from the animal is observed (response score greater than or equal to 1). This indicates the lowest threshold of tolerance to pain for measuring allodynia; • nociceptive score: percentage of the maximum response for each filament. This indicates the overall pain response.
The animals of each of the groups receive either the carrier, or NMN at 500 mg/kg, or ibuprofen at 300 mg/kg administered via the oral route. After administration of the compounds to be tested (carrier, NMN, or ibuprofen), cyclophosphamide is injected via the intraperitoneal route into each rat. The cyclophosphamide induces strong inflammation in the bladder and simulates a pain induced by a urinary tract infection such as cystitis.
The test with the von Frey filaments is repeated at 2 hr and then subsequently at 4 hr after injection of the cyclophosphamide in order to measure the pain response of the animals.
The results were analysed by a one-way analysis of variance (ie one-way ANOVA) test supplemented by a Dunnett's test or by a two-way ANOVA analysis. With regard to statistical significance, * signifies that p<0.05, ** signifies that p<0.01, and *** signifies that p<0.001, as compared to the group treated with the carrier.

[3] = T=2 h after CYP injection, vs carrier (FIG. 3B)
[4] = T=4 h after CYP injection, vs carrier (FIG. 3C)

| Compound | nociceptive scores (CYP-induced visceral pain) ([1]; +2 hr) | nociceptive threshold (CYP-induced allodynia) ([1]; +2 hr, vs carrier (FIG. 6A)) | nociceptive scores (CYP-induced visceral pain) ([1]; +4 hr) | nociceptive threshold (CYP-induced allodynia) ([1]; +4 hr, vs carrier (FIG. 6B)) | visceral pain induced by the CYP (conclusion) ([1]; +2 hr) | visceral pain induced by the CYP (conclusion) ([1]; +4 hr) | nociceptive threshold (threshold of tolerance to pain, allodynia) ([2]; T0, vs carrier (FIG. 3A)) | nociceptive threshold (threshold of tolerance to pain, allodynia) [2, 3] | nociceptive threshold (threshold of tolerance to pain, allodynia) [2, 4] | nociceptive score ([2]; 2 hours after CYP (FIG. 4B)) | nociceptive score ([2]; 4 hours after CYP (FIG. 4C)) | pain tolerance threshold (nociceptive threshold) after cyclophosphamide ([2]; carrier-treated rats, intraperitoneal cyclophosphamide, 10 g before administration (FIG. 1B)) [g] | nociceptive threshold after CYP vs baseline response ([1]; CYP 150 mg/kg i.p., carrier-treated group, 2 hours and 4 hours post injection (FIG. 2A)) | nociceptive scores after CYP vs baseline response ([1]; CYP 150 mg/kg i.p., carrier-treated group, 2 hours and 4 hours post injection (FIG. 2B)) |
| --- | --- | --- | --- | --- | --- | --- | --- | --- | --- | --- | --- | --- | --- | --- |
| NC(=O)c1ccc[n+]([C@H]2O[C@H](COP(=O)([O-])O)[C@@H](O)[C@H]2O)c1 [Compound A, alpha nicotinamide mononucleotide] | decrease in the nociceptive scores | increase in the nociceptive threshold | only achieved the level of statistical significance at +4 h | significant at +4 hr | reduced the visceral pain | only achieving the level of significance at +4 hr | – | – | – | – | – | – | – | – |
| NC(=O)c1ccc[n+]([C@@H]2O[C@H](COP(=O)([O-])O)[C@@H](O)[C@H]2O)c1 [NMN, nicotinamide mononucleotide] | significant decrease in the nociceptive scores | slight increase in the nociceptive threshold | significant decrease in the nociceptive scores | slight increase in the nociceptive threshold | relieved the visceral pain | relieved the visceral pain | increase the response threshold to nociceptive pain significantly | increase the response threshold to nociceptive pain significantly | increase the response threshold to nociceptive pain significantly | reducing the nociceptive score | reducing the nociceptive score | – | – | – |
| O=P1(N(CCCl)CCCl)NCCCO1 (stereo not shown) [cyclophosphamide, reference compound] | – | – | – | – | – | – | – | – | – | – | – | 3 | significant decrease in the nociceptive threshold | significant increase in the nociceptive scores |
| CC(C)Cc1ccc(C(C)C(=O)O)cc1 (stereo not shown) [ibuprofen] | – | – | – | – | – | – | significantly increase the threshold of tolerance to pain | significantly increase the threshold of tolerance to pain | significantly increase the threshold of tolerance to pain | reducing the nociceptive score | reducing the nociceptive score | – | – | – |
| di-NMN [Compound B] | no effect was observed | no effect | significant decrease in the nociceptive scores | significant increase in the nociceptive threshold | no beneficial effect | significant anti-nociceptive activity | – | – | – | – | – | – | – | – |
